Reference: patent US6191138A, “Phenanthridines” (Byk Gulden Lomberg Chemische Fabrik GmbH, priority 1996, dated 2001)

Tested on: PDE IV
Assay: Inhibition of PDE IV Activity (method of Bauer and Schwabe, adapted to microtiter plates)
Format: biochemical

Row | Compound | -log IC50 (Inhibition of PDE IV Activity)
1 | CCOc1cc2c(cc1OC)C(c1ccc(C(=O)OC)cc1)=N[C@H]1CCCC[C@@H]21 (racemic) [Compound 4, (+/ -)-cis-9-ethoxy-8-methoxy-6-[4-(methoxycarbonyl)phenyl]-1,2,3,4,4a,10b-hexahydrophenanthridine] | 8.73
2 | COc1cc2c(cc1OC)[C@@H]1CCCC[C@@H]1N=C2c1ccc(C(=O)O)cc1.Cl (racemic) [Compound 15, (+/ -)-cis-6-(4-carboxyphenyl)-8,9-dimethoxy-1,2,3,4,4a,10b-hexahydrophenanthridine hydrochloride] | 6.81
3 | CCOc1cc2c(cc1OCC)[C@@H]1CCCC[C@@H]1N=C2c1cccc(C(=O)O)c1.Cl (racemic) [Compound 18, (+/ -)-cis-6-(3-carboxyphenyl)-8,9-diethoxy-1,2,3,4,4a,10b-hexahydrophenanthridine hydrochloride] | 7.69
4 | COc1cc2c(cc1OC)[C@@H]1CCCC[C@@H]1N=C2c1ccc(C(=O)OCC2CC2)cc1 (racemic) [Compound 13, (+/ -)-cis-8,9-dimethoxy-6-[4-(cyclopropylmethoxycarbonyl)phenyl]-1,2,3,4,4a ,10b-hexahydrophenanthridine] | 7.39
5 | COC(=O)c1ccc(C2=N[C@H]3CCCC[C@H]3c3cc(OC(F)F)c(OC)cc32)cc1 (racemic) [Compound 3, (+/ -)-cis-9-difluoromethoxy-8-methoxy-6-[4-(methoxycarbonyl)phenyl]-1,2,3,4,4a ,10b-hexahydrophenanthridine] | 7.73
6 | CCOc1cc2c(cc1OC)[C@@H]1CCCC[C@@H]1N=C2c1ccc(C(=O)OC)cc1 (racemic) [Compound 5, (+/ -)-cis-8-ethoxy-9-methoxy-6-[4-(methoxycarbonyl)phenyl]-1,2,3,4,4a,10b-hexahydrophenanthridine] | 7.02
7 | CNC(=O)c1ccc(C2=N[C@H]3CCCC[C@H]3c3cc(OC)c(OC)cc32)cc1 (racemic) [Compound 20, (+/-)-cis-6-[4-(N-methylaminocarbonyl)phenyl]-8,9-dimethoxy-1,2,3,4,4a ,10b-hexahydrophenanthridine] | 5.18
8 | CCOc1cc2c(cc1OCC)[C@@H]1CCCC[C@@H]1N=C2c1ccc(C(=O)O)cc1.Cl (racemic) [Compound 14, (+/ -)-cis-6-(4-carboxyphenyl)-8,9-diethoxy-1,2,3,4,4a,10b-hexahydrophenanthridine hydrochloride] | 8.27
9 | COC(=O)c1ccc(C2=N[C@H]3CCCC[C@H]3c3cc(OC)c(OC)cc32)cc1 (racemic) [Compound 1, (+/ -)-cis-8,9-dimethoxy-6-[4-(methoxycarbonyl)phenyl]-1,2,3,4,4a,10b-hexahydrophenanthridine] | 7.39
10 | CCOc1cc2c(cc1OCC)[C@@H]1CCCC[C@@H]1N=C2c1cccc(C(=O)OC)c1 (racemic) [Compound 6, (+/-)-cis-8,9-diethoxy-6-[3-(methoxycarbonyl)phenyl]-1,2,3,4,4a ,10b-hexahydrophenanthridine] | 8.14
11 | COC(=O)c1ccc(C2=N[C@H]3CCCC[C@H]3c3cc(OC)c(OC)cc32)cc1 (single isomer, unassigned) [Compound 11, (-)-cis-8,9-dimethoxy-6-[4-(methoxycarbonyl)phenyl]-1,2,3,4,4a,10b-hexahydrophenanthridine] | 7.52
12 | COC(=O)c1ccc(C2=N[C@H]3CCCC[C@@H]3c3cc(OC)c(OC)cc32)cc1 (racemic) [Compound 8, (+/ -)-trans-8,9-dimethoxy-6-[4-(methoxycarbonyl)phenyl]-1,2,3,4,4a,10b-hexahydrophenanthridine] | 5.92
13 | CCOc1cc2c(cc1OCC)[C@@H]1CCCC[C@@H]1N=C2c1ccccc1C(=O)OC (racemic) [Compound 7, (+/ -)-cis-8,9-diethoxy-6-[2-(methoxycarbonyl)phenyl]-1,2,3,4,4a,10b-hexahydrophenanthridine] | 6.34
14 | CCOc1cc2c(cc1OC)C(c1ccc(C(=O)O)cc1)=N[C@H]1CCCC[C@@H]21.Cl (racemic) [Compound 16, (+/ -)-cis-6-(4-carboxyphenyl)-9-ethoxy-8-methoxy-1,2,3,4,4a,10b-hexahydrophenanthridine hydrochloride] | 8.66
15 | CCOc1cc2c(cc1OCC)[C@@H]1CCCC[C@@H]1N=C2c1ccc(C(=O)OC)cc1 (single isomer, unassigned) [Compound 9, (-)-cis-8,9-diethoxy-6-[4-(methoxycarbonyl)phenyl]-1,2,3,4,4a,10b-hexahydrophenanthridine] | 8.52
16 | CCOc1cc2c(cc1OC)[C@@H]1CCCC[C@@H]1N=C2c1ccc(C(=O)O)cc1.Cl (racemic) [Compound 17, (+/ -)-cis-6-(4-carboxyphenyl)-8-ethoxy-9-methoxy-1,2,3,4,4a,10b-hexahydrophenanthridine hydrochloride] | 6.79
17 | COC(=O)c1ccc(C2=N[C@H]3CCCC[C@H]3c3cc(OC)c(OC)cc32)cc1 (single isomer, unassigned) [Compound 12, (+)-cis-8,9-dimethoxy-6-[4-(methoxycarbonyl)phenyl]-1,2,3,4,4a,10b-hexahydrophenanthridine] | 4.95
18 | COc1cc2c(cc1OC(F)F)[C@@H]1CCCC[C@@H]1N=C2c1ccc(C(=O)O)cc1.Cl (racemic) [Compound 19, (+/ -)-cis-6-(4-carboxyphenyl)-9-difluoromethoxy-8-methoxy-1,2,3,4,4a,10b-hexahydrophenanthridine hydrochloride] | 7.55
19 | CCOc1cc2c(cc1OCC)[C@@H]1CCCC[C@@H]1N=C2c1ccc(C(=O)OC)cc1 (racemic) [Compound 2, (+/ -)-cis-8,9-diethoxy-6-[4-(methoxycarbonyl)phenyl]-1,2,3,4,4a,10b-hexahydrophenanthridine] | 8.84
20 | CCOc1cc2c(cc1OCC)[C@@H]1CCCC[C@@H]1N=C2c1ccc(C(=O)OC)cc1 (single isomer, unassigned) [Compound 10, (+)-cis-8,9-diethoxy-6-[4-(methoxycarbonyl)phenyl]-1,2,3,4,4a,10b-hexahydrophenanthridine] | 7.48
